Consider three molecules from patent publication US8603990B2, “Grafted macromolecular conjugates of doxorubicin with anticancer activity and method of their preparation” (priority 2006, dated 2013).

Values after ≈ are worked out from the molar mass of the structure shown.

Data set [1] concerns mouse T cellular lymphoma EL4. The conditions noted are these: for Mice surviving on the 70th day: end of experiment day 70. The protocol: The in vivo experiments involved a model of mouse T cellular lymphoma EL4, the experimental animals were mice (males) of the B/6 species that were subcutaneously implanted with 10^5 tumor cells on day 0. The conjugates were applied intravenously in a dose of 1×15 mg/kg of DOX equivalent. This single application was carried out on the ninth day after the tumor cells transplantation, i.e. at a time when the tumor was palpable, about approx. 400 mm^3 in size.

Data set [2] addresses cathepsine B (Homo sapiens, UniProt P07858). Nature of the data set: Degradation of grafted conjugates by cathepsine B. The data set is classed as in vitro ADME. Particulars: cathepsine B 5.10^−7 mol/l, pH 6, 37° C., 24 hours. The protocol: The degradation experiments were carried in a phosphate buffer (0.1 M phosphate buffer containing 0.05 M NaCl, pH 6) in the presence of cathepsine B or glutathione in the role of degradation agents, i.e. in the environment modeling intracellular environment (cytoplasm, endosome and secondary lysosome). The grafted polymeric conjugates were dissolved in the phosphate buffer in concentration of 50 mg/ml and immediately before the solutions were placed in a thermostat (37° C.) a stock solution of cathepsine B or glutathione was added to the solutions so that the final concentration of these agents in the incubation medium was 5.10^−7 mol/l and 3.10^−3 mol/l for cathepsine and glutathione, respectively. In predetermined intervals aliquot parts (200 μl) were sampled from the incubation solutions. The samples were desalinated in the PD-10 columns and lyophilized. The molecular weight of the degradation products was measured using the Shimadzu SIL-HT liquid chromatograph fitted with a differential refractometer (Shimadzu RID-10A) and multiangle light dispersion detector (DAWN EOS, Wyatt Technology, USA). The analysis was carried out in a Superose™ 6 column (300×10 mm) (Amersham Bioscience). […] The molecular weight and polydispersity of the copolymer was calculated using the Astra software. […]

Data set [3] has as its system Jurkat. Nature of the data set: In vitro cytotoxicity, Jurkat line. The data set is classed as cell-based. Particulars: Homo sapiens; Jurkat cells; repeated values per sample.
Data set [4] deals with SW620 (human colorectal carcinoma). Briefly: In vitro cytotoxicity, SW620 line. Particulars: SW-620, SW620 cells, repeated values per sample. The data set is classed as cell-based.
Where [5] appears, read: 1×15 mg/kg DOX equivalent i.v. on day 9.

In the case of “poly(HPMA-co-MA-AH-NHNH2-co-MA-AH-NHN=DOX-co-MA-AH-SS—)-graft-[(SS)-poly(HPMA-co-MA-AH-NHNH2-MA-AH-NHN=DOX)] [Conjugate 3a]”, in data set [1] (setting [5]), the Anticancer effect result is given as “very significant anticancer effect” and the “Mice surviving on the 70th day” value is recorded as 100%. Moreover, the “Survival: day of animal death or LTS (individual mice)” value in data set [1] (B/6 mice, EL 4 10^5 cells s.c. day 0, one i.v. dose 15 mg/kg DOX equivalent on day 9) is “LTS”.
On to “poly(HPMA-co-MA-AH-NHNH2-MA-AH-NHN=DOX-co-MA-GFLG-NH—)-graft-[(GFLG)-poly(HPMA-co-MA-AH-NHNH2-co-MA-AH-NHN=DOX)] [Conjugate 1d]”, for which, in data set [1] (setting [5]), the Anticancer effect entry is reported as “very significant anticancer effect”, the “Weight decrease as a sign of toxicity” value is “no weight decrease” and the “Mice surviving on the 70th day” value was 88%. Besides, the “Molecular weight of degradation products” value in data set [2] was “below the renal filtration limit”.
With `COc1cccc2c1C(=O)c1c(O)c3c(c(O)c1C2=O)C[C@@](O)(C(=O)CO)C[C@@H]3O[C@H]1C[C@H](N)[C@H](O)[C@H](C)O1` [Dox, doxorubicin], the results for the IC50 in data set [3] and in data set [4] were 0.119 mg/L (≈ 0.219 µM) and 0.003 mg/L (≈ 0.00552 µM), respectively.
